For 1 molecule, inhibition results are on record in PMC7180948, “New Insights into 4-Anilinoquinazolines as Inhibitors of Cardiac Troponin I–Interacting Kinase (TNNi3K)” (Molecules, 2020).

Holding throughout (assay): biochemical
Common to all, as to parameters: KINOMEscan competition binding panel (Eurofins DiscoverX), single concentration, percent inhibition
Holding throughout (details): read-out: 15 at 1 µM % inhibition

The target of one assay is PIK3CA (Homo sapiens, UniProt P42336). In outline: (§1)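 A single 1 µM concentration of each compound is screened across upwards of 400 human kinases using the KINOMEscan format.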
PIK3CA, sequence (P42336 whole entry): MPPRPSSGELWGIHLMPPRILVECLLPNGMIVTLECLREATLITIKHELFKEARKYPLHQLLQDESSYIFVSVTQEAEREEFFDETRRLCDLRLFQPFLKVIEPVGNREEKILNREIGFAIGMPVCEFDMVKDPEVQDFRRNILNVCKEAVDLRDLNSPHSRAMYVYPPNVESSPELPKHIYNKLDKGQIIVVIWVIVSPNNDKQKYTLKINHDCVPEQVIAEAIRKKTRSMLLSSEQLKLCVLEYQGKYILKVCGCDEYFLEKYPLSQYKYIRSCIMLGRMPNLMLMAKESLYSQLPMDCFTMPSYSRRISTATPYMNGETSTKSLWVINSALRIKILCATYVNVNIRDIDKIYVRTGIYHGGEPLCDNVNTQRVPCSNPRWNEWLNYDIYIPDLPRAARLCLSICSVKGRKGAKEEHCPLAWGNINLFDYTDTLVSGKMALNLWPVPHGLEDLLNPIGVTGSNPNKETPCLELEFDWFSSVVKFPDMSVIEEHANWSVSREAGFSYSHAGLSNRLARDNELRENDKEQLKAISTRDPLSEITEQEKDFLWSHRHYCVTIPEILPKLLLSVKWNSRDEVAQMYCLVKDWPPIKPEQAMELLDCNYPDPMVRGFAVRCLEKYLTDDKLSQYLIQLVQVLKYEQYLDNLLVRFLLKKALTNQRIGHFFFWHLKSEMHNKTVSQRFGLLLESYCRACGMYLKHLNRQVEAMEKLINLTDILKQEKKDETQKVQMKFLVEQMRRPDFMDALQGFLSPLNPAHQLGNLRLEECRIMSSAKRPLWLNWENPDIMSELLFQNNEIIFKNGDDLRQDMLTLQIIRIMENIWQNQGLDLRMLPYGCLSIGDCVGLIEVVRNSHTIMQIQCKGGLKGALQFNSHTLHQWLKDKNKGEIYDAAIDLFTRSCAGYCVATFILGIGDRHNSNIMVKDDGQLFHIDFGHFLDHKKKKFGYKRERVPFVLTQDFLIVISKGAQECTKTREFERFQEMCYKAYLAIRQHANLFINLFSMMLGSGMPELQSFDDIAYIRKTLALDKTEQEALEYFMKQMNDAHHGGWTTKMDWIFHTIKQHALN
For a further assay, the target named is RET(M918T) (Homo sapiens, UniProt P07949, M918T). In outline: as §1
A further assay concerns the target T1, MST4 (Homo sapiens, UniProt Q9P289).
T1 construct: gene STK26
In outline:
as §1

The target of a further assay is FYN (Homo sapiens, UniProt P06241). The method in brief: as §1
A further assay addresses T2, ERK8 (Homo sapiens, UniProt Q8TD08).
T2 construct: gene MAPK15
The method in brief: as §1

The next assay addresses EGFR(S752-I759del) (Homo sapiens, UniProt P00533, DEL752-759). In outline:
as §1

In a further assay the target is T3, CAMK1B (Homo sapiens, UniProt Q6P2M8).
T3 construct: gene PNCK
The method in brief:
as §1

Another assay deals with CAMK1 (Homo sapiens, UniProt Q14012). In outline: as §1
CAMK1, sequence (Q14012 whole entry): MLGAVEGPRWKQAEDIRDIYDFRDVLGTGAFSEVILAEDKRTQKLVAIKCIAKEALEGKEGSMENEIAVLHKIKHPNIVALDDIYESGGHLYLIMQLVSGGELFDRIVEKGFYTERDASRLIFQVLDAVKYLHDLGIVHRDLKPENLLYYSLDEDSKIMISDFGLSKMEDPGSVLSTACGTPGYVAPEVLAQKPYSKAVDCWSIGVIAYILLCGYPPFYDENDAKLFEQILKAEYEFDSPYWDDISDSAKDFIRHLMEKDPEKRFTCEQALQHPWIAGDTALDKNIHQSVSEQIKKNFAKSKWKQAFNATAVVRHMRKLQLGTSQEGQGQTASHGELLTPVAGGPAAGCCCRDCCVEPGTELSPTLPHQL
The target in another assay is GSK3B (Homo sapiens, UniProt P49841). The method in brief:
as §1

Another assay concerns the target TIE1 (Homo sapiens, UniProt P35590). The method in brief: as §1
The next assay deals with MYLK2 (Homo sapiens, UniProt Q9H1R3). The method in brief:
as §1

The next assay addresses T4, ABL1-nonphosphorylated (Homo sapiens, UniProt P00519).
T4 construct: nonphosphorylated
The method in brief: as §1

A further assay deals with FGFR3 (Homo sapiens, UniProt P22607). The method in brief: as §1
FGFR3, sequence (P22607 whole entry): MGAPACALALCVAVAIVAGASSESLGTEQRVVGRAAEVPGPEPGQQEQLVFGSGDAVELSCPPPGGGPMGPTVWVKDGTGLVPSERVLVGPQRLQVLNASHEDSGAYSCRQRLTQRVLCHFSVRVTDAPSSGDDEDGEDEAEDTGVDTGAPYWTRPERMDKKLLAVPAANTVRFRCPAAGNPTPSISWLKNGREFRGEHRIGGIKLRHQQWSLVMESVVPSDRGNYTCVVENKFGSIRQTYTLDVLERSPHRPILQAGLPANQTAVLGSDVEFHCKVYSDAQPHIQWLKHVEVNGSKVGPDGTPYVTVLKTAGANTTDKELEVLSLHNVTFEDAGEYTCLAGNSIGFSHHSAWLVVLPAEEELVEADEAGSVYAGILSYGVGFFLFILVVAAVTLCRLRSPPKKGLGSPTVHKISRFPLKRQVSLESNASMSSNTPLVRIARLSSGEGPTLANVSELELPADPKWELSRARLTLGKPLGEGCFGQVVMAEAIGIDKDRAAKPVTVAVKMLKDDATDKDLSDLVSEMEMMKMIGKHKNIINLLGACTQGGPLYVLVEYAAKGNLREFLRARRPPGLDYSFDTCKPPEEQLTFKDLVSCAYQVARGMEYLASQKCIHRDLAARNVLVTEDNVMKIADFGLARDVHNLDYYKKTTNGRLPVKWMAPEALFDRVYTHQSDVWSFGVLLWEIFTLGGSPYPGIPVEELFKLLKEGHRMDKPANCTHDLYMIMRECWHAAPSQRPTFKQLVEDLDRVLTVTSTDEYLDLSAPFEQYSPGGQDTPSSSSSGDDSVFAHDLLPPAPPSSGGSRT
Another assay deals with CSNK1D (Homo sapiens, UniProt P48730). In outline: as §1
CSNK1D, sequence (P48730 whole entry): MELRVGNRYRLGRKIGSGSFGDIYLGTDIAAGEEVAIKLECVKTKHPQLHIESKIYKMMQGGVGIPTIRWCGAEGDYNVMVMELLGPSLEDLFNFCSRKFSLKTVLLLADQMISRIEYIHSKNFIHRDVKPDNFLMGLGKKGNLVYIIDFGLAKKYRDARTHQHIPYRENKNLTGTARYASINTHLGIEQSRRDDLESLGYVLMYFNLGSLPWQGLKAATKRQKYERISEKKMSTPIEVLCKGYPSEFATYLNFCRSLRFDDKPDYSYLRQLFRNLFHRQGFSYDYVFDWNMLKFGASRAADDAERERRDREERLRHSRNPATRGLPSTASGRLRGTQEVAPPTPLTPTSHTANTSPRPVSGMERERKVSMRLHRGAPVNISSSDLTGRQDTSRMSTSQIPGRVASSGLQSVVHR
The next assay has as its target SRMS (Homo sapiens, UniProt Q9H3Y6). The method in brief:
as §1

The target of another assay is T5, MEK4 (Homo sapiens, UniProt P45985).
T5 construct: gene MAP2K4
T5 sequence (P45985 whole entry): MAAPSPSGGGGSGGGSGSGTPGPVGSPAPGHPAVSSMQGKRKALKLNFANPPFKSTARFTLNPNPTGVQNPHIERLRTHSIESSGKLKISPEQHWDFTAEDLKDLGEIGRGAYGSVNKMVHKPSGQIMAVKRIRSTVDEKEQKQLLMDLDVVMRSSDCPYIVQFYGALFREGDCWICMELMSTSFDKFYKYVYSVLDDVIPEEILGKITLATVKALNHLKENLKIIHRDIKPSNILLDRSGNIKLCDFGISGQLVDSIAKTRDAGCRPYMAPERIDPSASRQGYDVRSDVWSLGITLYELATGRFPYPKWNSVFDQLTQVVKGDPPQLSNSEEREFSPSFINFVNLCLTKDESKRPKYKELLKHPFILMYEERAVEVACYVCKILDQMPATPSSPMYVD
The method in brief:
as §1

For the next assay, the target named is T6, DLK (Homo sapiens, UniProt Q12852).
T6 construct: gene MAP3K12
T6 sequence (Q12852 whole entry): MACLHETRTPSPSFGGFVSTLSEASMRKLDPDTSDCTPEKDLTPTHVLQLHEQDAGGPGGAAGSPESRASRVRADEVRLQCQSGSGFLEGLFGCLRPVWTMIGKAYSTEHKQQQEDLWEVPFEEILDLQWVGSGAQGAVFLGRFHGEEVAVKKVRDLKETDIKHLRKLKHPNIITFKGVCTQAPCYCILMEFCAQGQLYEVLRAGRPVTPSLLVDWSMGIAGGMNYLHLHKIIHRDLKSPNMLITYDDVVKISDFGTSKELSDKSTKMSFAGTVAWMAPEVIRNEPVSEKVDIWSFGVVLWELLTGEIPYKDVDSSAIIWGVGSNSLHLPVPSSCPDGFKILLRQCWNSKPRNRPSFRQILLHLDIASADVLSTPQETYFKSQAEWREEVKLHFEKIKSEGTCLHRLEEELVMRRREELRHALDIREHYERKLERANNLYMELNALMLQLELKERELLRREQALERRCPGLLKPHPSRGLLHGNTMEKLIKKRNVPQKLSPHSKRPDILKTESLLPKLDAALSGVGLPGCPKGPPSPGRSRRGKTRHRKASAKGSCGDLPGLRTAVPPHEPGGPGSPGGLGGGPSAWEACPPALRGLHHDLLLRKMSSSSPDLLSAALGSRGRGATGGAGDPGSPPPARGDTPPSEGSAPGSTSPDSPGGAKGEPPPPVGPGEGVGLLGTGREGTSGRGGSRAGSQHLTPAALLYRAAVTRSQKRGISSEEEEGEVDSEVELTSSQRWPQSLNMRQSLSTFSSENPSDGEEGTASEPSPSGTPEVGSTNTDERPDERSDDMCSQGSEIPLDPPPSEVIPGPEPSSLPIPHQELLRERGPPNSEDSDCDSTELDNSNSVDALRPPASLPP
In outline:
as §1

For another assay, the target named is FRK (Homo sapiens, UniProt P42685). The method in brief:
as §1

The next assay concerns the target T7, DCAMKL2 (Homo sapiens, UniProt Q8N568).
T7 construct: gene DCLK2
The method in brief:
as §1

For another assay, the target named is T8, NIM1 (Homo sapiens, UniProt Q8IY84).
T8 construct: gene NIM1K
T8 sequence (Q8IY84 whole entry): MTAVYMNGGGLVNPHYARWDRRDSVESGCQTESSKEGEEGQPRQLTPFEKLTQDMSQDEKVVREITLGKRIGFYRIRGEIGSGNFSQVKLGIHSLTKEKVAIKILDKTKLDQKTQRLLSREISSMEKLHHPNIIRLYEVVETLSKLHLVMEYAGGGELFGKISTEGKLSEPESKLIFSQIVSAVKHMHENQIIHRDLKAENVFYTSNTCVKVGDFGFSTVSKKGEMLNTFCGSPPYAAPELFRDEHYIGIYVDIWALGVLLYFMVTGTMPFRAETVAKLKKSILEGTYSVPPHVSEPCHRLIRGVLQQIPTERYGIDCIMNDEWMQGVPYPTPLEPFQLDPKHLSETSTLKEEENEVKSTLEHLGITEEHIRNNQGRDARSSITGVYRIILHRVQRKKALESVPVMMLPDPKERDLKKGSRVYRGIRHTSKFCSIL
In outline: as §1

In the next assay the target is PRKCQ (Homo sapiens, UniProt Q04759). The method in brief:
as §1

A further assay has as its target RIOK3 (Homo sapiens, UniProt O14730). The method in brief:
as §1

In another assay the target is VRK2 (Homo sapiens, UniProt Q86Y07). The method in brief:
as §1

The target in another assay is T9, ADCK3 (Homo sapiens, UniProt Q8NI60).
T9 construct: gene COQ8A
The method in brief:
as §1

FRK, sequence (P42685 whole entry): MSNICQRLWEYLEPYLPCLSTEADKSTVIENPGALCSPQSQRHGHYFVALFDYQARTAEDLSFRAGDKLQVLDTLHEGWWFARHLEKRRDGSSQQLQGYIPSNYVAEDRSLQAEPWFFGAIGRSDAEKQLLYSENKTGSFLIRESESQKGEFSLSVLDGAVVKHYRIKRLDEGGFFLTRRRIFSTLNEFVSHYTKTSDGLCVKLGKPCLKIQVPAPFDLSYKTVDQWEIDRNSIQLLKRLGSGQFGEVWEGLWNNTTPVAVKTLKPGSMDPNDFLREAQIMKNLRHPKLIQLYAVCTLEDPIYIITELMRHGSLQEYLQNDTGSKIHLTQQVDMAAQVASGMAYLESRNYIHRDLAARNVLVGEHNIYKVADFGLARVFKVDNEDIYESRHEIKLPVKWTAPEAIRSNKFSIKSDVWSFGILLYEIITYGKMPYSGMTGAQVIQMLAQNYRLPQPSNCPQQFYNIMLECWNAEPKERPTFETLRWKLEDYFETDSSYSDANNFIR

Turning to `CNS(=O)(=O)c1ccc(N(C)C)c(Nc2nc(C)nc3cc(OC)c(OC)cc23)c1` [compound 15, 3-((6,7-dimethoxy-2-methylquinazolin-4-yl)amino)-4-(dimethylamino)-N-methylbenzenesulfonamide], the inhibition at 1 µM on PIK3CA amounted to 13%; at RET(M918T) it was 0%; on MST4, 13%; at FYN it was 0%; on ERK8, 0%; at EGFR(S752-I759del), 9%. For the same molecule, the inhibition at 1 µM on CAMK1B worked out at 28%; on CAMK1, 0%; at GSK3B, 17%; on TIE1 it was 11%; at MYLK2, 3%; at ABL1-nonphosphorylated, 13%. Further, the inhibition at 1 µM is 1% on FGFR3; 0% on CSNK1D; 17% on SRMS; 25% on MEK4; 12% on DLK; 0% on FRK. The inhibition at 1 µM worked out at 0% on DCAMKL2; 27% on NIM1; 16% on PRKCQ; 0% at RIOK3; 12% on VRK2; 9% on ADCK3.
